Key:
[1] = tested on: DLD-1 human colorectal adenocarcinoma cells; experiment: Cytotoxicity, resazurin metabolism assay, DLD-1; assay type: cell-based; details: 48 h, mean ± SD
Source text: (§1) Human lung carcinoma (A-549), human colon adenocarcinoma (DLD-1), human normal fibroblasts (WS1), mice melanoma (B16-F1), Human glioma (U-251), Human hepatocellular carcinoma (HEP G2), Human prostate adenocarcinoma (PC-3), Human ovary teratocarcinoma metastatic (PA-1), Human breast adenocarcinona metastatic (MDA-MB-231), Human breast adenocarcinoma (MCF-7) and Human malignant melanoma (SK-MEL-2) cell lines were obtained from the American Type Culture Collection (ATCC). All cell lines were cultured in minimum essential medium containing Earle's salts and L-glutamine (Mediatech Cellgro, Va.), to which was added 10% fetal bovine serum (Hyclone), vitamins (1×), penicillin (100 I.U./mL) and streptomycin (100 μg/mL), essential amino acids (1×) and sodium pyruvate (1×) (Mediatech Cellgro, Va.). Cells were kept at 37° C. in a humidified environment containing 5% CO2.
(§2) Exponentially growing cells were plated in 96-well microplates (Costar, Corning Inc.) at a density of 5×10^3 cells per well in 100 μL of culture medium and were allowed to adhere for 16 hours before treatment. Increasing concentrations of each compound in DMSO (Sigma-Aldrich) were then added (100 μL per well) and the cells were incubated for 48 h. […] Cytotoxicity was assessed using resazurin (O'Brien, J. et al., Eur. J. Biochem. 2000, 267, 5421-5426) on an automated 96-well Fluoroskan Ascent F1™ plate reader (Labsystems) using excitation and emission wavelengths of 530 nm and 590 nm, respectively. Fluorescence was proportional to the cellular metabolic activity in each well. Survival percentage was defined as the fluorescence in experimental wells compared to that in control wells after subtraction of blank values. Each experiment was carried out three times in triplicata. IC50 results were expressed as mean±standard deviation.
(§3) The cytotoxicity of triterpenes (1-8) and corresponding glycosides (9-30) (Table 2 below) as well as of germanicane-type triterpenes and glycosides (31-44) (Table 3 below) was assessed towards human cancer (A-549, DLD-1), mouse melanoma (B16-F1) and human normal skin fibroblast (WS1) cell lines using the resazurin reduction test (RTT test) as previously described (O'Brien, J. et al., Eur. J. Biochem. 2000, 267, 5421-5426). Measurements of fluorescence were carried out after 48 continuous hours of contact between compounds and cells. Results presented in Tables 2 and 3 below express the concentration inhibiting 50% of the cell growth (IC50). Known for its activity against A-549, betulinic acid (3) was used as a positive control in this experimentation. […] The cytotoxic activity of some of these compounds was also assessed using the Hoechst DNA assay (Table 4 below).

[2] = tested on: Hep G2 human hepatocellular carcinoma cells; experiment: Cytotoxicity, resazurin metabolism assay, Hep G2; assay type: cell-based; details: mean ± SD
Source text: as §1, §2
(§4) Compounds presented in Table 5 below were also tested in the following tumour cell lines: U-251 (Human glioma), HEP G2 (Human hepatocellular carcinoma), PC-3 (Human prostate adenocarcinoma), PA-1 (Human ovary teratocarcinoma metastatic), MDA-MB-231 (Human breast adenocarcinona metastatic), MCF-7 (Human breast adenocarcinoma) and SK-MEL-2 (Human malignant melanoma).

A-549 cells = experiment: Cytotoxicity, Hoechst DNA assay, A-549; assay type: cell-based, human; details: ± SD
Source text: as §1, §3

[3] = tested on: SK-Mel-2 human melanoma cells; experiment: Cytotoxicity, resazurin metabolism assay, SK-Mel-2; assay type: cell-based; details: mean ± SD
Source text: as §1, §2, §4

[4] = tested on: PA-1 human ovary teratocarcinoma cells; experiment: Cytotoxicity, resazurin metabolism assay, PA-1; assay type: cell-based; details: mean ± SD
Source text: as §1, §2, §4

U-251 human glioma cells = experiment: Cytotoxicity, resazurin metabolism assay, U-251; assay type: cell-based; details: mean ± SD
Source text: as §1, §2, §4

[5] = tested on: MDA-MB-231 human breast adenocarcinoma cells; experiment: Cytotoxicity, resazurin metabolism assay, MDA-MB-231; assay type: cell-based; details: mean ± SD
Source text: as §1, §2, §4

WS-1 cells = experiment: Cytotoxicity, Hoechst DNA assay, WS-1; assay type: cell-based, human; details: ± SD
Source text: as §1, §3

[6] = tested on: PC-3 human prostate adenocarcinoma cells; experiment: Cytotoxicity, resazurin metabolism assay, PC-3; assay type: cell-based; details: mean ± SD
Source text: as §1, §2, §4

[7] = tested on: B16-F1 mouse melanoma cells; experiment: Cytotoxicity, resazurin metabolism assay, B16-F1; assay type: cell-based; details: 48 h, mean ± SD
Source text: as §1, §2, §3

[8] = tested on: MCF-7 human breast adenocarcinoma cells; experiment: Cytotoxicity, resazurin metabolism assay, MCF-7; assay type: cell-based; details: mean ± SD
Source text: as §1, §2, §4

[9] = tested on: A-549 human lung carcinoma cells; experiment: Cytotoxicity, resazurin metabolism assay, A-549; assay type: cell-based; details: 48 h, mean ± SD
Source text: as §1, §2, §3

B16-F1 cells = experiment: Cytotoxicity, Hoechst DNA assay, B16-F1; assay type: cell-based, mouse; details: ± SD
Source text: as §1, §3

DLD-1 cells = experiment: Cytotoxicity, Hoechst DNA assay, DLD-1; assay type: cell-based, human; details: ± SD
Source text: as §1, §3

[10] = tested on: WS-1 human normal skin fibroblasts; experiment: Cytotoxicity, resazurin metabolism assay, WS-1; assay type: cell-based; details: 48 h, mean ± SD
Source text: as §1, §2, §3

Compound	IC50 [1]	IC50 [2]	IC50 (A-549 cells)	IC50 [3]	IC50 [4]	IC50 (U-251 human glioma cells)	IC50 [5]	IC50 (WS-1 cells)	IC50 [6]	IC50 [7]	IC50 [8]	IC50 [9]	IC50 (B16-F1 cells)	IC50 (DLD-1 cells)	IC50 [10]
C=C(C)[C@@H]1CC[C@]2(C)CC[C@]3(C)[C@H](CC[C@@H]4[C@@]5(C)CC[C@H](O[C@@H]6O[C@H](CO)[C@@H](O)[C@H](O)[C@H]6O)C(C)(C)[C@@H]5CC[C@]43C)[C@@H]12 [Compound 9, 3-O-6-D-Glucopyranoside of lupeol]	14 ± 1 µM	17.8 ± 0.2 µM	22 ± 2 µM	15.5 ± 0.6 µM	13 ± 1 µM	17.9 ± 0.7 µM	20.9 ± 0.6 µM	20 ± 2 µM	30 ± 2 µM	15 ± 0.7 µM	16.4 ± 0.5 µM	14 ± 1 µM	18 ± 2 µM	19 ± 1 µM	13.3 ± 0.5 µM
C=C(C)[C@@H]1CC[C@]2(C)CC[C@]3(C)[C@H](CC[C@@H]4[C@@]5(C)CC[C@H](O[C@H]6OC[C@@H](O)[C@@H](O)[C@@H]6O)C(C)(C)[C@@H]5CC[C@]43C)[C@@H]12 [Compound 11, 3-O-α-D-Arabinopyranoside of Lupeol]	50 ± 6 µM	10 ± 0.9 µM	34 ± 2 µM	10 ± 0.8 µM	9.8 ± 0.6 µM	10.1 ± 0.2 µM	11 ± 1 µM	24 ± 1 µM	26 ± 3 µM	27 ± 2 µM	23 ± 2 µM	28 ± 2 µM	28 ± 1 µM	69 ± 7 µM	15.8 ± 0.8 µM
C=C(C)C1CCC2(CO)CCC3(C)C(CCC4C5(C)CCC(OC6OC(C)C(O)C(O)C6O)C(C)(C)C5CCC43C)C12 [Compound 13, 3-O-α-L-Rhamnopyranoside of Betulin]	50 ± 10 µM	11 ± 0.9 µM		110 ± 20 µM	180 ± 30 µM	170 ± 40 µM	33 ± 2 µM		61 ± 6 µM	18 ± 1 µM	19 ± 4 µM	22 ± 3 µM			33 ± 5 µM
C=C(C)C1CCC2(CO)CCC3(C)C(CCC4C5(C)CCC(OC6OCC(O)C(O)C6O)C(C)(C)C5CCC43C)C12 [Compound 14, 3-O-α-D-Arabinopyranoside of Betulin]	63 ± 8 µM	38 ± 2 µM		54 ± 3 µM	41 ± 5 µM	40 ± 7 µM	49.2 ± 0.9 µM		65 ± 6 µM	38 ± 3 µM	61 ± 7 µM	41 ± 3 µM			59 ± 5 µM
C=C(C)[C@@H]1CC[C@]2(C(=O)OC)CC[C@]3(C)[C@H](CC[C@@H]4[C@@]5(C)CC[C@H](O[C@@H]6O[C@H](CO)[C@@H](O)[C@H](O)[C@H]6O)C(C)(C)[C@@H]5CC[C@]43C)[C@@H]12 [Compound 18, 3-O-β-D-Glucopyranoside of Methyl Betulinate]	3.93 ± 0.09 µM	79 ± 5 µM	9.3 ± 0.6 µM	103 ± 4 µM	60 ± 20 µM	84 ± 2 µM	101.7 ± 0.1 µM	12 ± 2 µM	130 ± 30 µM	7.1 ± 0.3 µM	110 ± 6 µM	8.4 ± 0.3 µM	7.2 ± 0.8 µM	4 ± 0.2 µM	9.3 ± 0.2 µM
C=C(C)[C@@H]1CC[C@]2(C(=O)OC)CC[C@]3(C)[C@H](CC[C@@H]4[C@@]5(C)CC[C@H](O[C@H]6OC[C@@H](O)[C@@H](O)[C@@H]6O)C(C)(C)[C@@H]5CC[C@]43C)[C@@H]12 [Compound 20, 3-O-α-D-Arabinopyranoside of Methyl Betulinate]	18 ± 1 µM	15 ± 2 µM	11.7 ± 0.8 µM	16 ± 1 µM	16 ± 4 µM	15 ± 1 µM	16.3 ± 0.8 µM	13.2 ± 0.7 µM	17 ± 1 µM	13.3 ± 0.4 µM	21 ± 3 µM	13.5 ± 0.6 µM	12.6 ± 0.5 µM	16 ± 0.6 µM	12.5 ± 0.4 µM
C=C(C)[C@@H]1CC[C@]2(C(=O)O)CC[C@]3(C)[C@H](CC[C@@H]4[C@@]5(C)CC[C@H](O[C@H]6OC[C@@H](O)[C@@H](O)[C@@H]6O)C(C)(C)[C@@H]5CC[C@]43C)[C@@H]12 [Compound 23, 3-O-α-D-Arabinopyranoside of Betulinic Acid]	17 ± 3 µM	66 ± 9 µM	5.7 ± 0.8 µM	62 ± 7 µM	20 ± 2 µM	70 ± 10 µM	57 ± 6 µM	32 ± 2 µM	110 ± 10 µM	11 ± 1 µM	45 ± 9 µM	10 ± 2 µM	10.2 ± 0.6 µM	10 ± 1 µM	47 ± 5 µM
CC1(C)CCC23CCC4(C)C(CCC5C6(C)CCC(OC7OC(CO)C(O)C(O)C7O)C(C)(C)C6CCC54C)C2C1OC3 [Compound 33, 3-O-β-D-Glucopyranoside of Allobetulin]	41.6 ± 0.9 µM	44 ± 5 µM		37 ± 2 µM	39 ± 2 µM	46 ± 1 µM	41.2 ± 0.7 µM		42 ± 8 µM		51 ± 2 µM	31 ± 2 µM			45 ± 3 µM
CC1(C)CC[C@]23CC[C@]4(C)[C@H](CC[C@@H]5[C@@]6(C)CC[C@H](O[C@@H]7O[C@H](CO)[C@H](O)[C@H](O)[C@H]7O)C(C)(C)[C@@H]6CC[C@]54C)[C@H]2[C@H]1OC3 [Compound 36, 3-O-β-D-Galactopyranoside of Allobetulin]	42 ± 9 µM	41 ± 10 µM		40 ± 3 µM	45 ± 4 µM	53 ± 4 µM	44 ± 4 µM		45 ± 6 µM		60 ± 20 µM	30 ± 10 µM			30 ± 9 µM
